In the supplement of paper PMC11208160:

Assay: recombinant UMI read abundance after kanamycin selection (control-corrected) (log10(CPM+1)); higher = more efficient recombination; extreme values may be limits of the assay; sequences stand for … in AGTGCAGAGAAAATCGGCCAGTTTTCTCTGCCTGCAGTCCGCATGCCGTGGGACCCCTTGGGTTCTAACCTGTTGCCTAGATTTATGCAGCGGACTGCCTTTCTCCCAAAGTGATAAACCGG…AGGTTGGTTTCACT; site = the 11-nt donor
Procedure, shortened: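 Values are reported as log10(CPM+1), obtained by converting sequencing counts to CPM, averaging replicates and scaling by control-derived factors. The counts came from recombinant UMIs amplified by PCR across the donor–target junction. These UMIs came from a pooled Escherichia coli screen of donor and donor-binding-loop pairs for the IS621 bridge recombinase, plated with IPTG (0.07 mM) plus kanamycin or left unselected, in two replicates each.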
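Further: IS621 bridge recombinase in Escherichia coli cells against a fixed T5 target plasmid.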

“CAAGCGCCATGGACCGGTTTTCCCGGTAATCCGTATTTGTG (site GAAGCGCCTCA)” and “TGGCCGGCATGGACCGGTTTTCCCGGTAATCCGTATTTGGT (site TGGCCGGCTGC)” are within 0.2 log units of each other in “recombinant UMI read abundance (log10)” value: 0.0137 for the first, 0 for the second.

“CACTTCCCATGGACCGGTTTTCCCGGTAATCCGTATTTGCT (site CATTTCCCTAG)” and “GCCACGCCATGGACCGGTTTTCCCGGTAATCCGTATTTGAA (site GCCACGCCTTA)” are within 0.2 log units of each other in “recombinant UMI read abundance (log10)” value: 0 for the first, 0.00688 for the second.

Compared with “CAAGTAGCATGGACCGGTTTTCCCGGTAATCCGTATTTGCT (site CAAGCAGCTAG)”, “GTTCGTGCATGGACCGGTTTTCCCGGTAATCCGTATTTGCA (site GTTCGAGCTTG)” is higher in “recombinant UMI read abundance (log10)” value: 0.378 for the first, 0.585 for the second.

“GGAGAGGCATGGACCGGTTTTCCCGGTAATCCGTATTTGGT (site GGAGCGGCTAC)” and “CGATCATCATGGACCGGTTTTCCCGGTAATCCGTATTTGCT (site CGATTATCTAG)” are within 0.2 log units of each other in “recombinant UMI read abundance (log10)” value: 0.00751 for the first, 0 for the second.

“TGGCCAGCATGGACCGGTTTTCCCGGTAATCCGTATTTGGC (site TGGCCGGCTGC)” and “GATTATCCATGGACCGGTTTTCCCGGTAATCCGTATTTGTT (site GATTATCCTAA)” are within 0.2 log units of each other in “recombinant UMI read abundance (log10)” value: 0 for the first, 0.00783 for the second.

Compared with “GCCGCGCCATGGACCGGTTTTCCCGGTAATCCGTATTTGTA (site GCCACGCCTTA)”, “CGGGAGCCATGGACCGGTTTTCCCGGTAATCCGTATTTGCC (site CGGGAGGCTGG)” is higher in “recombinant UMI read abundance (log10)” value: 0.00924 for the first, 0.991 for the second.

“GTCAATCCATGGACCGGTTTTCCCGGTAATCCGTATTTGAA (site GCCAATCCTTT)” and “ATAAAGGCATGGACCGGTTTTCCCGGTAATCCGTATTTGCT (site AGAAAGGCTAG)” are within 0.2 log units of each other in “recombinant UMI read abundance (log10)” value: 0.306 for the first, 0.349 for the second.

“ACTAGTGCATGGACCGGTTTTCCCGGTAATCCGTATTTGGG (site ACTAGTGCTGC)” and “CGGTCGACATGGACCGGTTTTCCCGGTAATCCGTATTTGTT (site CGCTCGACTAA)” are within 0.2 log units of each other in “recombinant UMI read abundance (log10)” value: 0 for the first, 0.00476 for the second.

“AGCTCCCCATGGACCGGTTTTCCCGGTAATCCGTATTTGGG (site AGCTCCCCTCC)” and “ATTCGTCCATGGACCGGTTTTCCCGGTAATCCGTATTTGGT (site ATTCGTCCTAC)” are within 0.2 log units of each other in “recombinant UMI read abundance (log10)” value: 0.111 for the first, 0.0259 for the second.

Compared with “ACATCTACATGGACCGGTTTTCCCGGTAATCCGTATTTGCG (site ACATCTACTCC)”, “CATGCAGCATGGACCGGTTTTCCCGGTAATCCGTATTTGCT (site CATGCAGCTAG)” is higher in “recombinant UMI read abundance (log10)” value: 0.0147 for the first, 1.97 for the second.

First: TGCCACCCATGGACCGGTTTTCCCGGTAATCCGTATTTGTT (site GGCCACCCTAA)
Second: GTGCGAGCATGGACCGGTTTTCCCGGTAATCCGTATTTGCA (site GTACGAGCTTG)
The “recombinant UMI read abundance (log10)” value of the first is lower: 0.00763 for the first, 2.68 for the second.

Compared with “TGAGGCACATGGACCGGTTTTCCCGGTAATCCGTATTTGGT (site TGAGGCACTAC)”, “GCTACTGCATGGACCGGTTTTCCCGGTAATCCGTATTTGAG (site GCTACTGCTCT)” is higher in “recombinant UMI read abundance (log10)” value: 0.463 for the first, 1.49 for the second.

First: ACCCTAGCATGGACCGGTTTTCCCGGTAATCCGTATTTGTT (site AGCCTAGCTAA)
Second: TGAGCTACATGGACCGGTTTTCCCGGTAATCCGTATTTGCC (site TGAGCTACTGG)
The “recombinant UMI read abundance (log10)” value of the first is lower: 0.00512 for the first, 0.451 for the second.

“TAATTAGCATGGACCGGTTTTCCCGGTAATCCGTATTTGGG (site TAATAAGCTCC)” and “TATATGGCATGGACCGGTTTTCCCGGTAATCCGTATTTGTG (site TATTTGGCTCA)” are within 0.2 log units of each other in “recombinant UMI read abundance (log10)” value: 0.00264 for the first, 0.0941 for the second.

Compared with “CTAGGGGCATGGACCGGTTTTCCCGGTAATCCGTATTTGTG (site CTAGGGGCTCA)”, “GAATGACCATGGACCGGTTTTCCCGGTAATCCGTATTTGCA (site GAATGCCCTTG)” is lower in “recombinant UMI read abundance (log10)” value: 1.23 for the first, 0 for the second.

Going from “GTTATTCCATGGACCGGTTTTCCCGGTAATCCGTATTTGGT (site GTTATTCCTAC)” to “GTTGGACCATGGACCGGTTTTCCCGGTAATCCGTATTTGCC (site GTTGGACCTGG)”, the “recombinant UMI read abundance (log10)” value falls from 0.469 to 0.

“TGGCCACCATGGACCGGTTTTCCCGGTAATCCGTATTTGTT (site TGGCCACCTAA)” and “CACGCCGCATGGACCGGTTTTCCCGGTAATCCGTATTTGGT (site TTAAGTTCTTG)” are within 0.2 log units of each other in “recombinant UMI read abundance (log10)” value: 0.0258 for the first, 0 for the second.

First: GTAGGCACATGGACCGGTTTTCCCGGTAATCCGTATTTGTA (site GTAAGCACTTA)
Second: TAGCTTTCATGGACCGGTTTTCCCGGTAATCCGTATTTGGT (site TAGCGTTCTAC)
The “recombinant UMI read abundance (log10)” value of the first is higher: 1.08 for the first, 0 for the second.

“GTTAGAACATGGACCGGTTTTCCCGGTAATCCGTATTTGGC (site GTTAGAACTCC)” and “CGTTTAGCATGGACCGGTTTTCCCGGTAATCCGTATTTGCT (site CGTTTTGCTAG)” are within 0.2 log units of each other in “recombinant UMI read abundance (log10)” value: 0.0522 for the first, 0 for the second.
